Reference: patent US8603537B2, “Prasugrel containing quickly released stable oral pharmaceutical compositions” (Egis Pharmaceuticals PLC, priority 2012, dated 2013)
Where a name gives a salt, the structure may show the parent alone. One block for each molecule: values may come before it.

Legend:
[1] = Solubility of prasugrel base and prasugrel HCl at different pH values; assay type: physicochemical
Excerpt: According to the examples of WO 2008/073759 prasugrel containing pharmaceutical compositions are stabilized by storing the tablets in air-and waterproof packaging. According to WO 2006/135605 the decomposition of prasugrel containing compositions can be reduced in air- and moisture-proof blister filled with inert gas. […] This fact is substantiated by the following Table. It can be seen from the above Table that the solubility of the hydrochloric acid salt of prasugrel is much higher than that of the prasugrel base even in the pH range between 4.5 and 6.8

[2] = Storage stability of prasugrel base, related substances by HPLC; assay type: physicochemical
Excerpt: Contrary to the teaching of WO 2011/098536a stable product of appropriate bioavailability is obtained.

platelet aggregation = conditions: administered in the same dose, EP 1 298 132 B1; cited from earlier work
[3] = EP 2415 774; cited from earlier work
[4] = 25 ± 2° C. 60 ± 5% RH, 2 months
[5] = 25 ± 2° C. 60 ± 5% RH, 3 months
[6] = 25 ± 2° C. 60 ± 5% RH, 6 months
[7] = 40 ± 2° C. 75 ± 5% RH, 2 months
[8] = 40 ± 2° C. 75 ± 5% RH, 3 months
[9] = 40 ± 2° C. 75 ± 5% RH, 6 months

- Solubility ([1]; Water): 0.0009 g/100 ml
- Solubility ([1]; pH 1): 2.8 g/100 ml
- Solubility ([1]; pH 4.5): 0.0035 g/100 ml
- Solubility ([1]; pH 6.8): 0.001 g/100 ml
- Related substances by HPLC: Any identified impurity, each ([2]; 25 ± 2° C. 60 ± 5% RH, 1 month): 0.05%
- Related substances by HPLC: Any unidentified impurity ([2]; 25 ± 2° C. 60 ± 5% RH, 1 month): <0.05%
- Related substances by HPLC: Dezacetyl impurity ([2]; 25 ± 2° C. 60 ± 5% RH, 1 month): <0.05%
- Related substances by HPLC: Sum of impurities ([2]; 25 ± 2° C. 60 ± 5% RH, 1 month): 0.05%
- Related substances by HPLC: Any identified impurity, each [2, 4]: 0.07%
- Related substances by HPLC: Any unidentified impurity [2, 4]: <0.05%
- Related substances by HPLC: Dezacetyl impurity [2, 4]: <0.05%
- Related substances by HPLC: Sum of impurities [2, 4]: 0.07%
- Related substances by HPLC: Any identified impurity, each [2, 5]: <0.05%
- Related substances by HPLC: Any unidentified impurity [2, 5]: <0.05%
- Related substances by HPLC: Dezacetyl impurity [2, 5]: <0.05%
- Related substances by HPLC: Sum of impurities [2, 5]: <0.05%
- Related substances by HPLC: Any identified impurity, each [2, 6]: <0.05%
- Related substances by HPLC: Any unidentified impurity [2, 6]: <0.05%
- Related substances by HPLC: Dezacetyl impurity [2, 6]: <0.05%
- Related substances by HPLC: Sum of impurities [2, 6]: <0.05%
- Related substances by HPLC: Any identified impurity, each ([2]; 25 ± 2° C. 60 ± 5% RH, Initial): <0.05%
- Related substances by HPLC: Any unidentified impurity ([2]; 25 ± 2° C. 60 ± 5% RH, Initial): <0.05%
- Related substances by HPLC: Dezacetyl impurity ([2]; 25 ± 2° C. 60 ± 5% RH, Initial): <0.05%
- Related substances by HPLC: Sum of impurities ([2]; 25 ± 2° C. 60 ± 5% RH, Initial): <0.05%
- Related substances by HPLC: Any identified impurity, each ([2]; 40 ± 2° C. 75 ± 5% RH, 1 month): <0.05%
- Related substances by HPLC: Any unidentified impurity ([2]; 40 ± 2° C. 75 ± 5% RH, 1 month): <0.05%
- Related substances by HPLC: Dezacetyl impurity ([2]; 40 ± 2° C. 75 ± 5% RH, 1 month): <0.05%
- Related substances by HPLC: Sum of impurities ([2]; 40 ± 2° C. 75 ± 5% RH, 1 month): <0.05%
- Related substances by HPLC: Any identified impurity, each [2, 7]: 0.05%
- Related substances by HPLC: Any unidentified impurity [2, 7]: <0.05%
- Related substances by HPLC: Dezacetyl impurity [2, 7]: <0.05%
- Related substances by HPLC: Sum of impurities [2, 7]: 0.05%
- Related substances by HPLC: Any identified impurity, each [2, 8]: <0.05%
- Related substances by HPLC: Any unidentified impurity [2, 8]: <0.05%
- Related substances by HPLC: Dezacetyl impurity [2, 8]: <0.05%
- Related substances by HPLC: Sum of impurities [2, 8]: <0.05%
- Related substances by HPLC: Any identified impurity, each [2, 9]: <0.05%
- Related substances by HPLC: Any unidentified impurity [2, 9]: <0.05%
- Related substances by HPLC: Dezacetyl impurity [2, 9]: <0.05%
- Related substances by HPLC: Sum of impurities [2, 9]: <0.05%
- Related substances by HPLC: Any identified impurity, each ([2]; 40 ± 2° C. 75 ± 5% RH, Initial): <0.05%
- Related substances by HPLC: Any unidentified impurity ([2]; 40 ± 2° C. 75 ± 5% RH, Initial): <0.05%
- Related substances by HPLC: Dezacetyl impurity ([2]; 40 ± 2° C. 75 ± 5% RH, Initial): <0.05%
- Related substances by HPLC: Sum of impurities ([2]; 40 ± 2° C. 75 ± 5% RH, Initial): <0.05%
- Stability of the base per se on storage ([2]; storage period of 6 months): remains stable
SMILES: CC(=O)Oc1cc2c(s1)CCN(C(C(=O)C1CC1)c1ccccc1F)C2 (centres unmarked) [prasugrel base, 5-/2-cyclopropyl-1-(2-fluoro-phenyl)-2-oxoethyl/-4,5,6,7-tetrahydrothieno/3.2-c/-pyridine-2-yl-acetate]

- Solubility ([1]; pH 1): 7.8 g/100 ml
- Solubility ([1]; pH 4.5): 0.032 g/100 ml
- Solubility ([1]; pH 6.8): 0.007 g/100 ml
SMILES: CC(=O)Oc1cc2c(s1)CCN(C(C(=O)C1CC1)c1ccccc1F)C2 (centres unmarked) [prasugrel HCl]
- Platelet aggregation inhibitory effect compared with the base (platelet aggregation): almost twice higher

SMILES: CC(=O)Oc1cc2c(s1)CCN(C(C(=O)C1CC1)c1ccccc1F)C2 (centres unmarked) [hydrogen bromide salt]
- Solubility in 0.1N hydrochloric acid compared with the hydrochloric acid salt [3]: more readily soluble
